One molecule from paper PMC8468270, “In Vitro Heme Coordination of a Dye-Decolorizing Peroxidase—The Interplay of Key Amino Acids, pH, Buffer and Glycerol” (International Journal of Molecular Sciences, 2021) can be followed below.

In the assay the target is T1, KpDyP (WT KpDyP) (Klebsiella pneumoniae, UniProt A0A0W8ATM9).
T1 construct: gene yfeX; homodimer; ferric heme; distal D143, R232, L246, F248, proximal H215
T1 sequence (A0A0W8ATM9 1-299): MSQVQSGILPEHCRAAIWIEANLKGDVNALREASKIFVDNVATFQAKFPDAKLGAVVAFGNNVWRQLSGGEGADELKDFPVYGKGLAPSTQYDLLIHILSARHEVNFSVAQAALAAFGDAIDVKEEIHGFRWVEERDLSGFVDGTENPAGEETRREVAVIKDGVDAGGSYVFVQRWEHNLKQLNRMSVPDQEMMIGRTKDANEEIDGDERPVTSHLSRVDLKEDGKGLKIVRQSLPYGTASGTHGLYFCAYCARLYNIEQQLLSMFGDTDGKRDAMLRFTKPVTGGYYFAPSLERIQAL
The assay can be described thus: X-band CW EPR of frozen solution. The conditions noted are these: glycine-KOH buffer 50 mM, pH 10.0, 10 K, no glycerol; heme iron distal ligand; seen only at low temperature, not at room temperature. The format is binding.

In the case of `NCC(=O)O` [glycine], the “X-band CW EPR of frozen solution” value was “glycine binding is also observed for WT and R232A KpDyP at low temperature”.
